SMILES strings stand for the structures. Where only a bound is given, the exact number is not on record here.

The term ΔTm denotes the change in melting temperature against a reference sample. The term Ki denotes the equilibrium dissociation constant of an inhibitor or competing ligand from its target. Higher therefore signals weaker binding.

In one assay the target is T1, bCA (Bos taurus, UniProt P00921).
T1 construct: gene CA2; commercial bovine carbonic anhydrase
T1 sequence (P00921 2-260): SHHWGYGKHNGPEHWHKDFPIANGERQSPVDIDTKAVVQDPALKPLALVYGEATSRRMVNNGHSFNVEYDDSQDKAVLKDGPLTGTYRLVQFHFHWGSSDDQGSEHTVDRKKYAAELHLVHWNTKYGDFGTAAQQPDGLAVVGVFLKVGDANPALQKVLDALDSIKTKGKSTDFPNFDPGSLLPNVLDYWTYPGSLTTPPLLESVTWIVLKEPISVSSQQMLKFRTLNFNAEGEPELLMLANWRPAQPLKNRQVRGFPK
The experiment in a line: biochemical.
Settings: not given
Also on record: Differential scanning fluorimetry (SYPRO Orange) melting temperature shift of bCA, 20 uM compound. As to the method: (§1) Thermal shift assay was carried out using ViiA™ 7 Real-Time PCR System equipped with 384-well block (Applied Biosystems, USA). The TSA procedure was adopted from the literature[6–8] and was modified in order to allow measuring the bCA melting temperature on interaction with various compounds, including the known CA inhibitor azetazolamide (AZ)[9], which was used in this study as a reference bCA binder at 10 and 20 µM concentration. For 800-compound screening, the test reactions were set up in the following buffer: 10 mM NaH2PO4/Na2HPO4, pH 7.0, 10 mM NaCl. The total volume of the reaction mixture per well was 10 µL. Carbonic anhydrase (Sigma Aldrich Cat# C3934) in 300 µg/mL concentration was pre-mixed with environment-sensitive SYPRO orange dye (Invitrogen, Cat# S6650) at final concentration in the reaction of 10 ×, with regard to the stock concentration stated by the vendor. The mixtures were pre-incubated for 1 h at 4 °C with 20 µM concentrations of the compounds (and 1% final concentration of DMSO), placed into MicroAmp® Optical 384-Well Reaction Plate (ThermoFisher, Cat# 4309849). The reaction mixture was kept at room temperature for 15 min to ensure full protein-compound interactions. The temperature was raised at 1.6 °C/s rate to 40 °C without signal reading. Starting from 40 °C up to 85 °C the heating rate was set to 0.05 °C/s with constant fluorescence reading, using 470/623 nm filter set. The raw data of dye fluorescence intensity change upon melting of the protein were obtained from the instrument ViiA 7 RUO software. Further data processing and visualisation was performed by custom-made Microsoft Excel scripts. The peak of the first derivative for the fluorescence curve was used to define melting temperature Tm. Tm for DMSO control wells, having only protein, dye and 1% DMSO was used as a To to determine melting temperature shifts (ΔTm). All measurements were made in quadruplicates.
With `CC(C)C(C#N)N1CCN(c2ncnc3ccsc23)CC1` (stereo not drawn) [compound 16, Z1251205249], the ΔTm at 20 µM turned out to be 1.5 °C.

On to `CC(C)C(C#N)N1CCN(CC(=O)NCc2ccccn2)CC1` (stereo not drawn) [compound 17, Z1176496598], for which the thermal shift (ΔTm) at 20 µM amounted to 1.14 °C.

In the case of `CCNC(=O)CCCC(=O)N1CCN(C(C#N)c2ccccc2)CC1` (stereo not drawn) [compound 18, Z1185260979], the ΔTm at 20 µM was found to be 1.41 °C.

On to `COc1ccc(C(C#N)N2CCN(C(=O)C3CCCCC3)CC2)cc1` (stereo not drawn) [compound 30, Z146384300], for which the ΔTm at 20 µM was 1.64 °C.

In the case of `CCc1noc(CC)c1CC(=O)N1CCN(C(C#N)C(C)C)CC1` (stereo not drawn) [compound 31, Z1390085782], the ΔTm at 20 µM was found to be 1.55 °C.

With `Cc1ccccc1CN1CCN(C(=O)CN2CCN(C(C#N)C(C)C)CC2)CC1` (stereo not drawn) [compound 35, Z1171402445], the ΔTm at 20 µM is 1.82 °C.

For the molecule `Cn1cc(CN2CCN(C(C#N)c3ccccc3)CC2)c(-c2cccnc2)n1` (stereo not drawn) [compound 50, Z1470771430], the ΔTm at 20 µM was 1.37 °C.

The target in another assay is T1, bCA. The experiment in a line: biochemical. Also on record: differential scanning fluorimetry (thermal shift) with SYPRO Orange, bovine carbonic anhydrase.
Settings: not given
This is another data set of the same source. The procedure: as §1, with “For” for “Thermal shift assay was carried out using ViiA™ 7 Real-Time PCR System equipped with 384-well block (Applied Biosystems, USA). The TSA procedure was adopted from the literature[6–8] and was modified in order to allow measuring the bCA melting temperature on interaction with various compounds, including the known CA inhibitor azetazolamide (AZ)[9], which was used in this study as a reference bCA binder at 10 and 20 µM concentration. For”, “quadruplicates. Thermal shift assay was carried out using ViiA™ 7 Real-Time PCR System equipped with 384-well block (Applied Biosystems, USA). The TSA procedure was adopted from the literature[6–8] and was modified in order to allow measuring the bCA melting temperature on interaction with various compounds, including the known CA inhibitor azetazolamide (AZ)[9], which was used in this study as a reference bCA binder at 10 and 20 µM concentration.” for “quadruplicates.”
`CC(C)C(C#N)N1CCN(C(=O)CSc2ccc(Br)cc2)CC1` (stereo not drawn) [compound 36]: the ΔTm at 20 µM is 1.64 °C.

As for `CC(C)C(C#N)N1CCN(C(=O)C2CCCO2)CC1` (stereo not drawn) [compound 39], the ΔTm at 20 µM turned out to be 1.64 °C.

For the molecule `COc1ccc(C(=O)N2CCN(C(C#N)C(C)C)CC2)cc1OC(F)F` (stereo not drawn) [compound 46], the ΔTm at 20 µM came out at 1.37 °C.

On to `CC(C)C(C#N)N1CCN(Cc2nccn2CC(F)(F)F)CC1` (stereo not drawn) [compound 47], for which the ΔTm at 20 µM was 1.19 °C.

The next assay deals with T2, hCA II (Homo sapiens, UniProt P00918).
T2 construct: gene CA2; recombinant human CA II, obtained in-house
The experiment in a line: stopped-flow CO2 hydration assay. The class given is biochemical.
Settings: not given
The source says: stopped-flow CO2 hydration assay on hCA II
For `CC(C)C(C#N)N1CCN(c2ncnc3ccsc23)CC1` (stereo not drawn) [compound 16, Z1251205249], the Ki is 0.97 µM.

Consider `CC(C)C(C#N)N1CCN(CC(=O)NCc2ccccn2)CC1` (stereo not drawn) [compound 17, Z1176496598], for which the inhibition constant Ki stood at 0.78 µM.

Molecule `CCNC(=O)CCCC(=O)N1CCN(C(C#N)c2ccccc2)CC1` (stereo not drawn) [compound 18, Z1185260979] had a Ki of 0.93 µM.

In turn, `COc1ccc(C(C#N)N2CCN(C(=O)C3CCCCC3)CC2)cc1` (stereo not drawn) [compound 30, Z146384300] had a Ki of 0.91 µM. The Ki values of the last two molecules are within 1.5-fold of each other.

Consider `CCc1noc(CC)c1CC(=O)N1CCN(C(C#N)C(C)C)CC1` (stereo not drawn) [compound 31, Z1390085782], for which the inhibition constant (Ki) was found to be 0.76 µM. The Ki values of the last two molecules are within 1.5-fold of each other.

In turn, `CNS(=O)(=O)CCCN1CCN(C(C#N)c2ccccc2)CC1` (stereo not drawn) [compound 32, Z1395303258] came in with a Ki of 0.86 µM. The Ki values of the last two molecules are within 1.5-fold of each other.

Regarding `Cc1ccccc1CN1CCN(C(=O)CN2CCN(C(C#N)C(C)C)CC2)CC1` (stereo not drawn) [compound 35, Z1171402445], the Ki is 60.5 µM.

In turn, `CC(C)C(C#N)N1CCN(C(=O)CSc2ccc(Br)cc2)CC1` (stereo not drawn) [compound 36, Z1167646026] showed a Ki of 29.8 µM.

Take `CC(C)C(C#N)N1CCN(C(=O)C2CCCO2)CC1` (stereo not drawn) [compound 39, Z1167645477]: the affinity, expressed as Ki, was 20.4 µM.

The molecule `COc1ccc(C(=O)N2CCN(C(C#N)C(C)C)CC2)cc1OC(F)F` (stereo not drawn) [compound 46, Z1126852482] had a Ki of 3.7 µM.

With `CC(C)C(C#N)N1CCN(Cc2nccn2CC(F)(F)F)CC1` (stereo not drawn) [compound 47, Z1176495724], the affinity, expressed as Ki, was 38.2 µM.

Take `Cn1cc(CN2CCN(C(C#N)c3ccccc3)CC2)c(-c2cccnc2)n1` (stereo not drawn) [compound 50, Z1470771430]: the affinity, expressed as Ki, was 0.68 µM.

The same assay, now with this note: CO2 […]; […] Hepes pH […]; […] Na2SO4; room temperature; […] min pre-incubation.
For `COc1ccc(C(C#N)N2CCN(C(=O)c3ccc(Br)cc3)CC2)cc1` (stereo not drawn) [compound 4, Z118259550], the inhibitory constant (Ki) is over 100 µM.

Molecule `N#CC(Nc1ccc(F)cc1)c1ccco1` (stereo not drawn) [compound 5, Z131022682] returned a Ki of 8.1 µM.

`COc1ccc(C(C#N)N2CCN(C(=O)c3ccc4[nH]c5c(c4c3)CC(C)CC5)CC2)cc1` (stereo not drawn) [compound 7, Z118259780] displayed a Ki of over 100 µM.

`N#CC(c1ccccc1)N1CCN(C(=O)C2CCN(S(=O)(=O)c3ccccc3F)CC2)CC1` (stereo not drawn) [compound 8, Z118260178] returned a Ki of 74.3 µM.

In turn, `COc1ccc(C(C#N)N2CCN(C(=O)c3ccc(S(=O)(=O)N4CCCCCC4)cc3)CC2)cc1` (stereo not drawn) [compound 9, Z118259626] showed a Ki of over 100 µM.

For the molecule `N#CC(c1ccccc1)N1CCN(C(=O)c2ccccc2)CC1` (stereo not drawn) [compound 10, Z146786712], the Ki was 53.7 µM.

Consider `N#CC(C1CCCCC1)N1CCN(C(=O)CCc2ccccn2)CC1` (stereo not drawn) [compound 12, Z913897024], for which the Ki came to 40.9 µM.

Take `CC1(C)CN(C(C#N)c2ccc(Cl)cc2)CCO1` (stereo not drawn) [compound 13, Z1097120891]: the affinity corresponds to a Ki of 7.4 µM.

The molecule `CCNC(=O)C1CCCN(C(C#N)c2c(F)cccc2Cl)C1` (stereo not drawn) [compound 14, Z1230758078] gave an inhibition constant Ki of 9.3 µM.

The molecule `CC(C)C(C#N)N1CCN(c2ncnc3cc(F)ccc23)CC1` (stereo not drawn) [compound 15, Z1251205230] gave a Ki of over 100 µM.

For `N#CC1CN(C(=O)CCc2ccsc2)CCN1Cc1ccccc1` (stereo not drawn) [compound 19, Z1204316164], the Ki stood at 9.6 µM.

`Cc1cnc(C(=O)N2CCN(Cc3ccccc3)C(C#N)C2)cn1` (stereo not drawn) [compound 20, Z1204317166] registered a Ki of 100 µM.

`N#Cc1nccnc1N1CCN(Cc2ccccc2)C(C#N)C1` (stereo not drawn) [compound 21, Z1205181012]: the Ki was over 100 µM.

Molecule `CCC(CC)c1cc(C(=O)N2CCN(C(C#N)C(C)C)CC2)on1` (stereo not drawn) [compound 22, Z1261078980] showed a Ki of over 100 µM.

The molecule `CC(C)C(C#N)N1CCN(C(=O)c2scnc2C(C)(C)C)CC1` (stereo not drawn) [compound 23, Z1322755479] came in with a Ki of 9.1 µM.

`N#CC(c1c(F)cccc1Cl)N1CCCC(N2CCNC2=O)C1` (stereo not drawn) [compound 24, Z1298330150] came in with a Ki of 16 µM.

For the molecule `N#CC(c1c(F)cccc1Cl)N1CCC(N2CCCC2=O)CC1` (stereo not drawn) [compound 25, Z1298979831], the Ki is 36.1 µM. This Ki is about 2.3-fold higher than that of the molecule before.

Consider `CNC(=O)C1CCN(C(C#N)c2c(F)cccc2Cl)CC1` (stereo not drawn) [compound 26, Z1297989190], for which the Ki was 3 µM.

Turning to `CC(C)C(C#N)N1CCN(C(=O)C/C=C/c2cccc(F)c2)CC1` (stereo not drawn) [compound 27, Z1343956502], the Ki was over 100 µM.

In the case of `N#CC(c1ccccc1)N1CCN(CC(=O)NC2CCOCC2)CC1` (stereo not drawn) [compound 28, Z1317906129], the affinity corresponds to a Ki of 8.9 µM.

Molecule `N#CC(c1ccccc1)N1CCN(Cc2cccnc2)CC1` (stereo not drawn) [compound 29, Z1317905741] gave a Ki of 3.7 µM. This Ki is about 2.4-fold lower than that of the molecule before.

Turning to `N#CC(c1ccccc1)N1CCN(CC(=O)NCC2CCC2)CC1` (stereo not drawn) [compound 33, Z1395304494], the Ki amounted to 5.3 µM.

With `Cc1ccc(N(CC(=O)N2CCN(C(C#N)C(C)C)CC2)C(C)C)cc1` (stereo not drawn) [compound 34, Z1567293695], the affinity, expressed as Ki, was 5 µM.

Consider `N#CC(c1ccccc1)N1CCN(CC2CCOC2)CC1` (stereo not drawn) [compound 37, Z1395305944], for which the Ki was 2.3 µM.

Molecule `N#CC(c1ccc(Br)cc1)N1CCN(CCN2C(=O)CNC2=O)CC1` (stereo not drawn) [compound 38, Z1567199718] registered a Ki of 5 µM.

For the molecule `CC(C#N)N1CCN(C(=O)OC(C)(C)C)CC1` (stereo not drawn) [compound 40, Z1124717499], the affinity corresponds to a Ki of 41.9 µM.

With `Cc1ccc(C(=O)NCC(=O)N2CCN(C(C#N)C(C)C)CC2)cc1` (stereo not drawn) [compound 41, Z1416783341], the affinity corresponds to a Ki of 35.1 µM.

For the molecule `N#CC1COCCN1` (stereo not drawn) [compound 43, Z1198234963], the Ki is over 100 µM.

Molecule `CC(C)C(C#N)N1CCN(C(=O)CN2CCOC(c3ccc(F)cc3)C2)CC1` (stereo not drawn) [compound 45, Z1567277098] returned a Ki of 40.9 µM.

The molecule `Cc1ccc(C(=O)C2CCN(CC(=O)N3CCN(C(C#N)C(C)C)CC3)CC2)cc1` (stereo not drawn) [compound 48, Z1567280757] came in with a Ki of 5.5 µM.

As for `N#CC(c1ccccc1)N1CCN(CC(=O)NCC(F)(F)F)CC1` (stereo not drawn) [compound 49, Z1317905463], the affinity, expressed as Ki, was 3.5 µM.

Source of the values: publication PMC6882446, “Further validation of strecker-type α-aminonitriles as a new class of potent human carbonic anhydrase II inhibitors: hit expansion within the public domain using differential scanning fluorimetry leads to chemotype refinement” (Journal of Enzyme Inhibition and Medicinal Chemistry, 2019).
